Measured values reported in ChEMBL document CHEMBL1153472 (Bioorg Med Chem Lett, 2009).
pEC50: −log10 of the molar value.

Key:
[1] = AUC (0 to 24 hrs) in po dosed dog; assay type: ADME, organism-based, Canis lupus familiaris; set-up: time < 24 hr, route oral; details: plasma
[2] = target: Beta-3 adrenergic receptor (Homo sapiens, UniProt P13945); experiment: Agonist activity at human recombinant adrenergic beta3 receptor expressed in CHO cells assessed as stimulation of cAMP level after 1 hr by enzyme immunoassay; assay type: functional, cell-based
[3] = Cmax in po dosed dog; assay type: ADME, organism-based, Canis lupus familiaris; set-up: route oral; details: in vivo
[4] = target: Beta-1 adrenergic receptor (Homo sapiens, UniProt P08588); experiment: Agonist activity at human recombinant adrenergic beta-1 receptor expressed in CHO cells assessed as stimulation of cAMP level after 1 hr by enzyme immunoassay; assay type: functional, cell-based
[5] = Half life in iv dosed dog; assay type: ADME, organism-based, Canis lupus familiaris; details: in vivo
[6] = Total clearance in iv dosed dog; assay type: ADME, organism-based, Canis lupus familiaris; details: in vivo
[7] = Protein binding in dog; assay type: ADME, organism-based, Canis lupus familiaris; details: in vivo, read-out: PB (converted)
[8] = Oral bioavailability in dog; assay type: ADME, organism-based, Canis lupus familiaris; details: in vivo
Canis familiaris = experiment: Inhibition of carbachol-induced increase in intravesical pressure in intraduodenally dosed Beagle dog overactive bladder model administered after carbachol challenge followed by reinjection of carbachol 30 mins post drug dose measured for 180 mins; assay type: functional; details: Canis lupus familiaris, intraduodenal
[9] = target: Beta-3 adrenergic receptor (Canis lupus familiaris, UniProt O02662); experiment: Agonist activity at dog recombinant adrenergic beta3 receptor expressed in CHO cells assessed as stimulation of cAMP level after 1 hr by enzyme immunoassay; assay type: functional, cell-based
[10] = target: Beta-2 adrenergic receptor (Homo sapiens, UniProt P07550); experiment: Agonist activity at human recombinant adrenergic beta2 receptor expressed in CHO cells assessed as stimulation of cAMP level after 1 hr by enzyme immunoassay; assay type: functional, cell-based
Beta-2 adrenergic receptor, sequence (P07550 whole entry): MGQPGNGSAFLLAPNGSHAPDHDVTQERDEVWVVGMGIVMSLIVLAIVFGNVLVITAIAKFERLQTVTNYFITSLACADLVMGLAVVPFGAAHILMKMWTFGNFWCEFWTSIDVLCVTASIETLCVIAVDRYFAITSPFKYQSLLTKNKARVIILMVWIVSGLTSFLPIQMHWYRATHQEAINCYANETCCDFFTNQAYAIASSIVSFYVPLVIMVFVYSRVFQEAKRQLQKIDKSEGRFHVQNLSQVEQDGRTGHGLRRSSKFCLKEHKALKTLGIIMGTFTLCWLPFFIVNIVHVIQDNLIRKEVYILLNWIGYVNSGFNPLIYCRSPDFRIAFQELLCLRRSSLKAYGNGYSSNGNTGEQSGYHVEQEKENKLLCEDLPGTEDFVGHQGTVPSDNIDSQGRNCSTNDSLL

Beta-1 adrenergic receptor, sequence (P08588 whole entry): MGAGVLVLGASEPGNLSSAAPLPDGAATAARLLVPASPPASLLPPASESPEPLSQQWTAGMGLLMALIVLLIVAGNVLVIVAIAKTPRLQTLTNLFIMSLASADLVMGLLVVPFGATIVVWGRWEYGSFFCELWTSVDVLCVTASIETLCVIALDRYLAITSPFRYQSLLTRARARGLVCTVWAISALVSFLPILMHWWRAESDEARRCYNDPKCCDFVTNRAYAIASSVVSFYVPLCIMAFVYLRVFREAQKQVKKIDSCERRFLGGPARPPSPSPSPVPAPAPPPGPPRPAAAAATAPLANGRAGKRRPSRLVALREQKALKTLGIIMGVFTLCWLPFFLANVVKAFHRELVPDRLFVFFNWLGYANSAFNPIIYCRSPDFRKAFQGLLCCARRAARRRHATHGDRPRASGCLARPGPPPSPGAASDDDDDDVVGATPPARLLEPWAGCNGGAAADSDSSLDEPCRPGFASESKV
Beta-3 adrenergic receptor (Homo sapiens, UniProt P13945), sequence (P13945 whole entry): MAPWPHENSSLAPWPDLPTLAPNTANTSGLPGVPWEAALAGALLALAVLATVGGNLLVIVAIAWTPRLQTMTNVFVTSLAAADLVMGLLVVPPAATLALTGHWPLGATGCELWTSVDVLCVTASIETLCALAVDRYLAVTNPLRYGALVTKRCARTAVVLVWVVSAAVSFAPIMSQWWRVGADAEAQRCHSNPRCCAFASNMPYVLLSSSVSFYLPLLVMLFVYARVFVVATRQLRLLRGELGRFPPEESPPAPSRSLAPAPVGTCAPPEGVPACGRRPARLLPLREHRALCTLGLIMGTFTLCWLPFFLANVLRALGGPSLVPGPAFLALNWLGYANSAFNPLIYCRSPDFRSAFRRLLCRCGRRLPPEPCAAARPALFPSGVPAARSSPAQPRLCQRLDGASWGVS
Beta-3 adrenergic receptor (Canis lupus familiaris, UniProt O02662), sequence (O02662 whole entry): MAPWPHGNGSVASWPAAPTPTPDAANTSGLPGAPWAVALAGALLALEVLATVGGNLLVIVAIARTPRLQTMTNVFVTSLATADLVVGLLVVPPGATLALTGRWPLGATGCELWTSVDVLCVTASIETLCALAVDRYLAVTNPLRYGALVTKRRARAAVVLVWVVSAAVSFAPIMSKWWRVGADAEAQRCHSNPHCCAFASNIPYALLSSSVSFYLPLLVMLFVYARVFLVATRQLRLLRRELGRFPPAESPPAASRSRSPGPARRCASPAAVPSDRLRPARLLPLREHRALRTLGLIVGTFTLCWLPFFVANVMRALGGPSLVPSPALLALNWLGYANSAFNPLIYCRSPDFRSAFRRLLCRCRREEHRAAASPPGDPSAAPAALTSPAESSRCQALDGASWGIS

| Structure (SMILES) | AUC(0-t) at 24 h [1] [ng·h/mL] | pEC50 [2] | Cmax [3] [ng/mL] | pEC50 [4] | half-life [5] [h] | clearance [6] [mL/min/kg] | fraction unbound [7] | bioavailability [8] [%] | ED50 (Canis familiaris) [mg/kg] | pEC50 [9] | pEC50 [10] |
| --- | --- | --- | --- | --- | --- | --- | --- | --- | --- | --- | --- |
| CC(C)Oc1cc(-c2ccc(CCN[C@@H](C)[C@H](O)c3cccc(O)c3)cc2)ccc1C(=O)NS(C)(=O)=O | 7.3 | 10.36 | 2.9 | 6.89 |  |  |  |  |  |  |  |
| CC(C)Oc1cc(-c2ccc(CCN[C@@H](C)[C@H](O)c3ccc(O)cc3)cc2)ccc1C(=O)NS(C)(=O)=O | 117 | 9.80 | 23.2 | 6.54 | 6.7 | 7.9 | 0.1 | 56 | 5.9 | 9.00 | < 5.00 |
| CC(C)Cc1cc(-c2ccc(C[C@@H](C)NC[C@H](O)c3ccccc3)cc2)ccc1C(=O)NS(C)(=O)=O |  | 10.00 |  | 7.14 |  |  |  |  |  |  |  |
| CS(=O)(=O)NC(=O)c1ccc(-c2ccc(CCNC[C@H](O)c3cccc(N)c3)cc2)cc1OC1CCCCC1 | 79.3 | 8.92 | 6.1 | < 6.00 |  |  |  |  |  |  |  |
| CS(=O)(=O)NC(=O)c1ccc(-c2ccc(CCNC[C@H](O)c3ccc(N)cc3)cc2)cc1OC1CCCCC1 |  |  |  | < 6.00 |  |  |  |  |  |  |  |
| C[C@H](NCCc1ccc(-c2ccc(C(=O)NS(C)(=O)=O)c(OC3CCCCC3)c2)cc1)[C@H](O)c1ccc(O)cc1 | 39.7 | 9.46 | 5.3 | 6.96 | 3.5 | 11 |  | 25 |  |  | < 5.00 |
| CC(=O)Nc1ccc([C@@H](O)CNCCc2ccc(-c3ccc(C(=O)NS(C)(=O)=O)c(OC4CCCCC4)c3)cc2)cn1 | 86.5 | 9.64 | 16.2 | < 6.00 | 1.8 | 8.9 |  | 43 |  |  |  |
| CS(=O)(=O)NC(=O)c1ccc(-c2ccc(C[C@@H](CO)NC[C@H](O)c3ccccc3)cc2)cc1OC1CCCCC1 | 654 | 9.09 | 59.1 | < 6.00 | 5 | 2.4 |  | 95 |  |  |  |
| CC(C)Oc1cc(-c2ccc(CCNC[C@H](O)c3ccc(N)cc3)cc2)ccc1C(=O)NS(C)(=O)=O |  |  |  | < 6.00 |  |  |  |  |  |  |  |
| CC(C)Oc1cc(-c2ccc(CCNC[C@H](O)c3ccc(O)c(NS(C)(=O)=O)c3)cc2)ccc1C(=O)NS(C)(=O)=O | 4.4 | 9.59 | 1.1 | 6.82 |  |  |  |  |  |  |  |
| CC(C)Oc1cc(-c2ccc(CCNC[C@H](O)c3cccc(N)c3)cc2)ccc1C(=O)NS(C)(=O)=O | 143 | 8.22 | 17.2 | < 6.00 | 4.9 | 5.1 |  | 46 |  |  |  |
| COc1ccc([C@@H](O)[C@H](C)NCCc2ccc(-c3ccc(C(=O)NS(C)(=O)=O)c(OC4CCCCC4)c3)cc2)cc1 |  | 7.55 |  | < 6.00 |  |  |  |  |  |  |  |
